# Measured values taken from PubChem BioAssay AID1259407 (Chemical Carcinogenesis Research Information System (CCRIS), 2018).
# Activity calls are given as the source filed them. How the calls were made is not given here.
# Test system: CCRIS mutagenicity, Ames/micronucleus/aberration tests
# Assay: CCRIS mutagenicity studies
# [1] = Test System: AMES SALMONELLA TYPHIMURIUM, Strain/Indicator: TA98, Metabolic Activation: NONE, Method: STANDARD PLATE
# [2] = Test System: AMES SALMONELLA TYPHIMURIUM, Strain/Indicator: TA100, Metabolic Activation: NONE, Method: STANDARD PLATE
# [3] = Test System: AMES SALMONELLA TYPHIMURIUM, Strain/Indicator: TA1535, Metabolic Activation: NONE, Method: STANDARD PLATE
structure (smiles),measurement,setting,value
C#C[C@]1(O)CC[C@H]2[C@@H]3CCc4cc(OC)ccc4[C@H]3CC[C@@]21C,mutagenic call,"End Point: IN VITRO CHROMOSOMAL ABERRATIONS, Test System: HUMAN PERIPHERAL LYMPHOCYTES, Metabolic Activation: NONE",active; positive (total aberrations excluding gaps); positive at higher dose levels
same,mutagenic call,"End Point: IN VIVO CHROMOSOMAL ABERRATIONS, Test System: BONE MARROW CELLS, Species: MOUSE, Strain/Sex: SWISS/MALE, Route: IP INJECTION (ONCE)",active; positive
same,mutagenic call,"End Point: IN VIVO MICRONUCLEUS, Test System: BONE MARROW POLYCHROMATIC ERYTHROCYTES, Species: MOUSE, Strain/Sex: SWISS/MALE, Route: IP INJECTION (SINGLE DOSE)",active; positive
same,mutagenic call,"Test System: AMES SALMONELLA TYPHIMURIUM, Strain/Indicator: TA97A, Metabolic Activation: NONE, Method: STANDARD PLATE",inactive; negative
same,mutagenic call,"Test System: AMES SALMONELLA TYPHIMURIUM, Strain/Indicator: TA97A, Metabolic Activation: RAT, LIVER, S-9, PHENOBARBITONE, Method: PREINCUBATION",inactive; negative
same,mutagenic call,[1],inactive; negative
same,mutagenic call,"Test System: AMES SALMONELLA TYPHIMURIUM, Strain/Indicator: TA98, Metabolic Activation: RAT, LIVER, S-9, PHENOBARBITONE, Method: PREINCUBATION",inactive; negative
same,mutagenic call,[2],inactive; negative
same,mutagenic call,"Test System: AMES SALMONELLA TYPHIMURIUM, Strain/Indicator: TA100, Metabolic Activation: RAT, LIVER, S-9, PHENOBARBITONE, Method: PREINCUBATION",inactive; negative
same,mutagenic call,[3],inactive; negative
same,mutagenic call,"Test System: AMES SALMONELLA TYPHIMURIUM, Strain/Indicator: TA1535, Metabolic Activation: RAT, LIVER, S-9, PHENOBARBITONE, Method: PREINCUBATION",inactive; negative
same,mutagenic call,"Test System: HOST-MEDIATED ASSAY WITH SALMONELLA, Strain/Indicator: TA97A, Metabolic Activation: MALE SWISS MOUSE, SALMONELLA ADMINISTERED 4 HR AFTER 2ND INJECTION: SACRIFICE 2 HR LATER, Method: 2 INJECTIONS AT 12 HR INTERVAL",inactive; negative
same,mutagenic call,"Test System: HOST-MEDIATED ASSAY WITH SALMONELLA, Strain/Indicator: TA98, Metabolic Activation: MALE SWISS MOUSE, SALMONELLA ADMINISTERED 4 HR AFTER 2ND INJECTION: SACRIFICE 2 HR LATER, Method: 2 INJECTIONS AT 12 HR INTERVAL",inactive; negative
same,mutagenic call,"Test System: HOST-MEDIATED ASSAY WITH SALMONELLA, Strain/Indicator: TA100, Metabolic Activation: MALE SWISS MOUSE, SALMONELLA ADMINISTERED 4 HR AFTER 2ND INJECTION: SACRIFICE 2 HR LATER, Method: 2 INJECTIONS AT 12 HR INTERVAL",inactive; negative
same,mutagenic call,"Test System: HOST-MEDIATED ASSAY WITH SALMONELLA, Strain/Indicator: TA1535, Metabolic Activation: MALE SWISS MOUSE, SALMONELLA ADMINISTERED 4 HR AFTER 2ND INJECTION: SACRIFICE 2 HR LATER, Method: 2 INJECTIONS AT 12 HR INTERVAL",inactive; negative
CNc1ccc2ncc(-c3ccccc3)nc2c1C,mutagenic call,"Test System: AMES SALMONELLA TYPHIMURIUM, Strain/Indicator: TA98, Metabolic Activation: NONE, Method: PREINCUBATION",inactive; negative
same,mutagenic call,"Test System: AMES SALMONELLA TYPHIMURIUM, Strain/Indicator: TA98, Metabolic Activation: RAT, LIVER, S-9, PCB, Method: PREINCUBATION",active; positive
same,mutagenic call,"Test System: AMES SALMONELLA TYPHIMURIUM, Strain/Indicator: TA100, Metabolic Activation: NONE, Method: PREINCUBATION",inactive; negative
same,mutagenic call,"Test System: AMES SALMONELLA TYPHIMURIUM, Strain/Indicator: TA100, Metabolic Activation: RAT, LIVER, S-9, PCB, Method: PREINCUBATION",active; positive
COc1cccc2c1cc1c3c(cc4c(c32)OCO4)C(=O)N1,mutagenic call,"Test System: AMES SALMONELLA TYPHIMURIUM, Strain/Indicator: D3052, Metabolic Activation: NONE, Method: STANDARD PLATE",inactive; negative
same,mutagenic call,"Test System: AMES SALMONELLA TYPHIMURIUM, Strain/Indicator: D3052, Metabolic Activation: RAT, LIVER, S-9, PHENOBARBITAL, Method: STANDARD PLATE",inactive; negative
same,mutagenic call,"Test System: AMES SALMONELLA TYPHIMURIUM, Strain/Indicator: G46, Metabolic Activation: NONE, Method: STANDARD PLATE",inactive; negative
same,mutagenic call,"Test System: AMES SALMONELLA TYPHIMURIUM, Strain/Indicator: G46, Metabolic Activation: RAT, LIVER, S-9, PHENOBARBITAL, Method: STANDARD PLATE",inactive; negative
same,mutagenic call,[1],inactive; negative
same,mutagenic call,"Test System: AMES SALMONELLA TYPHIMURIUM, Strain/Indicator: TA98, Metabolic Activation: RAT, LIVER, S-9, PHENOBARBITAL, Method: STANDARD PLATE",inactive; negative
same,mutagenic call,[2],inactive; negative
same,mutagenic call,"Test System: AMES SALMONELLA TYPHIMURIUM, Strain/Indicator: TA100, Metabolic Activation: RAT, LIVER, S-9, AROCLOR 1254, Method: STANDARD PLATE",active; positive
same,mutagenic call,"Test System: AMES SALMONELLA TYPHIMURIUM, Strain/Indicator: TA100, Metabolic Activation: RAT, LIVER, S-9, PHENOBARBITAL, Method: STANDARD PLATE",inactive; negative
same,mutagenic call,[3],inactive; negative
same,mutagenic call,"Test System: AMES SALMONELLA TYPHIMURIUM, Strain/Indicator: TA1535, Metabolic Activation: RAT, LIVER, S-9, PHENOBARBITAL, Method: STANDARD PLATE",inactive; negative
same,mutagenic call,"Test System: AMES SALMONELLA TYPHIMURIUM, Strain/Indicator: TA1537, Metabolic Activation: NONE, Method: STANDARD PLATE",inactive; negative
same,mutagenic call,"Test System: AMES SALMONELLA TYPHIMURIUM, Strain/Indicator: TA1537, Metabolic Activation: RAT, LIVER, S-9, AROCLOR 1254, Method: STANDARD PLATE",active; positive
same,mutagenic call,"Test System: AMES SALMONELLA TYPHIMURIUM, Strain/Indicator: TA1978, Metabolic Activation: NONE, Method: STANDARD PLATE",inactive; negative
same,mutagenic call,"Test System: AMES SALMONELLA TYPHIMURIUM, Strain/Indicator: TA1978, Metabolic Activation: RAT, LIVER, S-9, PHENOBARBITAL, Method: STANDARD PLATE",inactive; negative
same,mutagenic call,"Test System: AMES SALMONELLA TYPHIMURIUM, Strain/Indicator: TM677/8-AZAGUANINE, Metabolic Activation: NONE, Method: SUSPENSION/PLATE",inactive; negative
CC(=O)C1=CC[C@H]2C3=CCC4=C[C@@H](O)[C@H](O)C[C@]4(C)C3C[C@@H](O)[C@]12C (some centres not stated),mutagenic call,"Test System: AMES SALMONELLA TYPHIMURIUM, Strain/Indicator: TM677, Metabolic Activation: NONE, Method: STANDARD PLATE",inactive; negative
same,mutagenic call,"Test System: AMES SALMONELLA TYPHIMURIUM, Strain/Indicator: TM677, Metabolic Activation: RAT, LIVER, S-9, AROCLOR 1254, Method: STANDARD PLATE",inactive; negative
same,mutagenic call,"Test System: CHINESE HAMSTER OVARY, Strain/Indicator: CHO/6-THIOGUANINE, Metabolic Activation: NONE, Method: STANDARD PLATE",inactive; negative
CC1=C(N=O)CNc2c1nc1c(C)cccn21,mutagenic call,[1],active; positive
same,mutagenic call,"Test System: AMES SALMONELLA TYPHIMURIUM, Strain/Indicator: TA98, Metabolic Activation: RAT, LIVER, CYTOSOL, AROCLOR 1254, Method: STANDARD PLATE",active; positive
same,mutagenic call,"Test System: AMES SALMONELLA TYPHIMURIUM, Strain/Indicator: TA98, Metabolic Activation: RAT, LIVER, MICROSOMES, AROCLOR 1254, Method: STANDARD PLATE",active; positive
same,mutagenic call,"Test System: AMES SALMONELLA TYPHIMURIUM, Strain/Indicator: TA98, Metabolic Activation: RAT, LIVER, S-9, AROCLOR 1254, Method: STANDARD PLATE",active; positive
